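Step 1: Grow cells in 96-well plates. Step 2: Expose to compound for 48 hours at 5 concentrations. Step 3: Interpolate endpoints linearly; if unreached, use highest concentration. Definition used: TGI = concentration required for complete inhibition of growth.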
What was measured:
Test in all cases: inhibition of tumour cell growth, NCI panel, 48 h
786-0 renal = test system: 786-0 renal
A549 NSCLC = test system: A549 NSCLC
ACHN renal = test system: ACHN renal
CAKI-1 renal = test system: CAKI-1 renal
CCRF-CEM leukemia = test system: CCRF-CEM leukemia
DLD-1 colon = test system: DLD-1 colon
DMS 273 small cell lung = test system: DMS 273 small cell lung
EKVX NSCLC = test system: EKVX NSCLC
HCT-116 colon = test system: HCT-116 colon
HCT-15 colon = test system: HCT-15 colon
HL-60(TB) leukemia = test system: HL-60(TB) leukemia
HOP-92 NSCLC = test system: HOP-92 NSCLC
HT29 colon = test system: HT29 colon
IGROV1 ovarian = test system: IGROV1 ovarian
K-562 leukemia = test system: K-562 leukemia
KM12 colon = test system: KM12 colon
KM20L2 colon = test system: KM20L2 colon
LOX IMVI melanoma = test system: LOX IMVI melanoma
LXFL 529 NSCLC = test system: LXFL 529 NSCLC
M14 melanoma = test system: M14 melanoma
M19-MEL melanoma = test system: M19-MEL melanoma
MALME-3M melanoma = test system: MALME-3M melanoma
MOLT-4 leukemia = test system: MOLT-4 leukemia
NCI-H226 lung = test system: NCI-H226 lung
NCI-H23 lung = test system: NCI-H23 lung
NCI-H522 lung = test system: NCI-H522 lung
OVCAR-3 ovarian = test system: OVCAR-3 ovarian
RPMI-8226 leukemia = test system: RPMI-8226 leukemia
RXF-631 renal = test system: RXF-631 renal
SF-268 CNS = test system: SF-268 CNS
SF-295 CNS = test system: SF-295 CNS
SF-539 CNS = test system: SF-539 CNS
SK-MEL-2 melanoma = test system: SK-MEL-2 melanoma
SK-MEL-28 melanoma = test system: SK-MEL-28 melanoma
SK-MEL-5 melanoma = test system: SK-MEL-5 melanoma
SK-OV-3 ovarian = test system: SK-OV-3 ovarian
SN12C renal = test system: SN12C renal
SNB-19 CNS = test system: SNB-19 CNS
SNB-75 CNS = test system: SNB-75 CNS
SNB-78 CNS = test system: SNB-78 CNS
SR leukemia = test system: SR leukemia
SW-620 colon = test system: SW-620 colon
TK-10 renal = test system: TK-10 renal
U251 CNS = test system: U251 CNS
UACC-257 melanoma = test system: UACC-257 melanoma
UACC-62 melanoma = test system: UACC-62 melanoma
UO-31 renal = test system: UO-31 renal
XF 498 CNS = test system: XF 498 CNS
A498 renal = test system: A498 renal
COLO 205 colon = test system: COLO 205 colon
HCC-2998 colon = test system: HCC-2998 colon
HOP-62 NSCLC = test system: HOP-62 NSCLC
NCI-H460 lung = test system: NCI-H460 lung
OVCAR-4 ovarian = test system: OVCAR-4 ovarian
OVCAR-5 ovarian = test system: OVCAR-5 ovarian
OVCAR-8 ovarian = test system: OVCAR-8 ovarian
RXF 393 renal = test system: RXF 393 renal
DMS 114 small cell lung = test system: DMS 114 small cell lung
HOP-18 NSCLC = test system: HOP-18 NSCLC

Cc1ccc(S(=O)(=O)CC(=O)CC(=O)C(=O)Nc2cccc(C(F)(F)F)c2)cc1
TGI (786-0 renal): > 100 µM | TGI (A549 NSCLC): > 100 µM | TGI (ACHN renal): > 100 µM | TGI (CAKI-1 renal): > 100 µM | TGI (CCRF-CEM leukemia): > 100 µM | TGI (DLD-1 colon): > 100 µM | TGI (DMS 273 small cell lung): > 100 µM | TGI (EKVX NSCLC): > 100 µM | TGI (HCT-116 colon): > 100 µM | TGI (HCT-15 colon): > 100 µM | TGI (HL-60(TB) leukemia): > 100 µM | TGI (HOP-92 NSCLC): > 100 µM | TGI (HT29 colon): > 100 µM | TGI (IGROV1 ovarian): > 100 µM | TGI (K-562 leukemia): > 100 µM | TGI (KM12 colon): > 100 µM | TGI (KM20L2 colon): > 100 µM | TGI (LOX IMVI melanoma): > 100 µM | TGI (LXFL 529 NSCLC): > 100 µM | TGI (M14 melanoma): > 100 µM | TGI (M19-MEL melanoma): > 100 µM | TGI (MALME-3M melanoma): > 100 µM | TGI (MOLT-4 leukemia): > 100 µM | TGI (NCI-H226 lung): > 100 µM | TGI (NCI-H23 lung): > 100 µM | TGI (NCI-H522 lung): > 100 µM | TGI (OVCAR-3 ovarian): > 100 µM | TGI (RPMI-8226 leukemia): > 100 µM | TGI (RXF-631 renal): > 100 µM | TGI (SF-268 CNS): > 100 µM | TGI (SF-295 CNS): > 100 µM | TGI (SF-539 CNS): > 100 µM | TGI (SK-MEL-2 melanoma): > 100 µM | TGI (SK-MEL-28 melanoma): > 100 µM | TGI (SK-MEL-5 melanoma): > 100 µM | TGI (SK-OV-3 ovarian): > 100 µM | TGI (SN12C renal): > 100 µM | TGI (SNB-19 CNS): > 100 µM | TGI (SNB-75 CNS): > 100 µM | TGI (SNB-78 CNS): > 100 µM | TGI (SR leukemia): > 100 µM | TGI (SW-620 colon): > 100 µM | TGI (TK-10 renal): > 100 µM | TGI (U251 CNS): > 100 µM | TGI (UACC-257 melanoma): > 100 µM | TGI (UACC-62 melanoma): > 100 µM | TGI (UO-31 renal): > 100 µM | TGI (XF 498 CNS): > 100 µM

O=C(COc1ccc2c(=O)cc(-c3ccc(Cl)cc3)oc2c1)N1CCN(c2ccccc2)CC1
TGI (786-0 renal): > 100 µM | TGI (A498 renal): > 100 µM | TGI (A549 NSCLC): > 100 µM | TGI (ACHN renal): > 100 µM | TGI (CAKI-1 renal): > 100 µM | TGI (COLO 205 colon): > 100 µM | TGI (DLD-1 colon): > 100 µM | TGI (EKVX NSCLC): > 100 µM | TGI (HCC-2998 colon): > 100 µM | TGI (HCT-116 colon): > 100 µM | TGI (HCT-15 colon): > 100 µM | TGI (HL-60(TB) leukemia): > 100 µM | TGI (HOP-62 NSCLC): > 100 µM | TGI (HOP-92 NSCLC): > 100 µM | TGI (HT29 colon): > 100 µM | TGI (IGROV1 ovarian): > 100 µM | TGI (K-562 leukemia): > 100 µM | TGI (KM12 colon): > 100 µM | TGI (KM20L2 colon): > 100 µM | TGI (LOX IMVI melanoma): > 100 µM | TGI (LXFL 529 NSCLC): > 100 µM | TGI (M14 melanoma): > 100 µM | TGI (M19-MEL melanoma): > 100 µM | TGI (MALME-3M melanoma): > 100 µM | TGI (MOLT-4 leukemia): > 100 µM | TGI (NCI-H226 lung): > 100 µM | TGI (NCI-H23 lung): > 100 µM | TGI (NCI-H460 lung): > 100 µM | TGI (OVCAR-3 ovarian): > 100 µM | TGI (OVCAR-4 ovarian): > 100 µM | TGI (OVCAR-5 ovarian): > 100 µM | TGI (OVCAR-8 ovarian): > 100 µM | TGI (RPMI-8226 leukemia): > 100 µM | TGI (RXF 393 renal): > 100 µM | TGI (RXF-631 renal): > 100 µM | TGI (SF-268 CNS): > 100 µM | TGI (SF-295 CNS): > 100 µM | TGI (SF-539 CNS): > 100 µM | TGI (SK-MEL-2 melanoma): > 100 µM | TGI (SK-MEL-28 melanoma): > 100 µM | TGI (SK-MEL-5 melanoma): > 100 µM | TGI (SK-OV-3 ovarian): > 100 µM | TGI (SN12C renal): > 100 µM | TGI (SNB-19 CNS): > 100 µM | TGI (SNB-75 CNS): > 100 µM | TGI (SNB-78 CNS): > 100 µM | TGI (SR leukemia): > 100 µM | TGI (SW-620 colon): > 100 µM | TGI (TK-10 renal): > 100 µM | TGI (U251 CNS): > 100 µM | TGI (UACC-257 melanoma): > 100 µM | TGI (UACC-62 melanoma): > 100 µM | TGI (UO-31 renal): > 100 µM | TGI (XF 498 CNS): > 100 µM

Cc1nc(N)nc(N)c1CCCCc1ccccc1
TGI (786-0 renal): 19 µM | TGI (A498 renal): > 100 µM | TGI (A549 NSCLC): > 100 µM | TGI (ACHN renal): > 100 µM | TGI (CAKI-1 renal): > 100 µM | TGI (CCRF-CEM leukemia): 24.8 µM | TGI (COLO 205 colon): 21 µM | TGI (DLD-1 colon): > 100 µM | TGI (DMS 114 small cell lung): 24.1 µM | TGI (DMS 273 small cell lung): 20.5 µM | TGI (EKVX NSCLC): > 100 µM | TGI (HCC-2998 colon): 22.7 µM | TGI (HCT-116 colon): > 100 µM | TGI (HCT-15 colon): 63.3 µM | TGI (HL-60(TB) leukemia): 20 µM | TGI (HOP-18 NSCLC): > 100 µM | TGI (HOP-62 NSCLC): 56.4 µM | TGI (HOP-92 NSCLC): 54.6 µM | TGI (HT29 colon): 16.9 µM | TGI (IGROV1 ovarian): > 100 µM | TGI (K-562 leukemia): 18.1 µM | TGI (KM12 colon): > 100 µM | TGI (KM20L2 colon): 63.3 µM | TGI (LOX IMVI melanoma): 23.9 µM | TGI (LXFL 529 NSCLC): 73.8 µM | TGI (M14 melanoma): 19.7 µM | TGI (M19-MEL melanoma): 30.6 µM | TGI (MALME-3M melanoma): 26.5 µM | TGI (MOLT-4 leukemia): 63.5 µM | TGI (NCI-H23 lung): 20.6 µM | TGI (NCI-H460 lung): 81.4 µM | TGI (NCI-H522 lung): 31.6 µM | TGI (OVCAR-3 ovarian): 99.4 µM | TGI (OVCAR-4 ovarian): > 100 µM | TGI (OVCAR-5 ovarian): > 100 µM | TGI (OVCAR-8 ovarian): > 100 µM | TGI (RPMI-8226 leukemia): 45.8 µM | TGI (RXF 393 renal): 49.8 µM | TGI (RXF-631 renal): 39.1 µM | TGI (SF-268 CNS): 45.7 µM | TGI (SF-295 CNS): > 100 µM | TGI (SF-539 CNS): 36 µM | TGI (SK-MEL-2 melanoma): 40.9 µM | TGI (SK-MEL-5 melanoma): 17.1 µM | TGI (SK-OV-3 ovarian): > 100 µM | TGI (SN12C renal): > 100 µM | TGI (SNB-19 CNS): > 100 µM | TGI (SNB-75 CNS): > 100 µM | TGI (SNB-78 CNS): > 100 µM | TGI (SR leukemia): 38.4 µM | TGI (SW-620 colon): > 100 µM | TGI (TK-10 renal): 88.7 µM | TGI (U251 CNS): 51.4 µM | TGI (UACC-257 melanoma): 28.6 µM | TGI (UACC-62 melanoma): 76.8 µM | TGI (UO-31 renal): > 100 µM

From PubChem BioAssay (NCI)
